From ChEMBL document CHEMBL1201862, “PubChem BioAssay data set” (2004)
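Step 1: Grow cells in 96-well plates. Step 2: Expose to compound for 48 hours at 5 concentrations. Step 3: Interpolate endpoints linearly; if unreached, use highest concentration. GI50 marks 50% less growth.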 Calls of active or inactive are those of the source. Cut-off read from the data, not from the text of the source: active = GI50 up to about 1.1 µM and inactive = higher.

Key:
Test in all cases: DTP human tumour cell line panel, 48 h
A549 = test system: A549
HCT-15 = test system: HCT-15
HL-60 = test system: HL-60
HOP-62 = test system: HOP-62
HT-29 = test system: HT-29
IGROV-1 = test system: IGROV-1
NCI-H226 = test system: NCI-H226
NCI-H23 = test system: NCI-H23
OVCAR-3 = test system: OVCAR-3
SF-295 = test system: SF-295
SF-539 = test system: SF-539
SK-MEL-28 = test system: SK-MEL-28
SNB-75 = test system: SNB-75
U-251 = test system: U-251
UACC-62 = test system: UACC-62
SK-MEL-2 = test system: SK-MEL-2

Structure (SMILES)	GI50 (A549)	GI50 (HCT-15)	GI50 (HL-60)	GI50 (HOP-62)	GI50 (HT-29)	GI50 (IGROV-1)	GI50 (NCI-H226)	GI50 (NCI-H23)	GI50 (OVCAR-3)	GI50 (SF-295)	GI50 (SF-539)	GI50 (SK-MEL-28)	GI50 (SNB-75)	GI50 (U-251)	GI50 (UACC-62)	GI50 (SK-MEL-2)
CC1CCCc2c(CC3CC(=O)NC(=O)C3)n[nH]c21 (configuration not stated)	> 100 µM (inactive)	> 100 µM	> 100 µM (inactive)	> 100 µM (inactive)	> 100 µM (inactive)	> 100 µM (inactive)	> 100 µM (inactive)	> 100 µM (inactive)	> 100 µM (inactive)	> 100 µM (inactive)	> 100 µM (inactive)	> 100 µM (inactive)	> 100 µM (inactive)	> 100 µM (inactive)	> 100 µM (inactive)	
CC(C)(C)c1cc(C2c3cc4c(cc3OC(O)(CO)C2C(=O)O)OCO4)cc(C(C)(C)C)c1O.CC(C)(C)c1cc(C2c3cc4c(cc3OC3(O)COC(=O)C23)OCO4)cc(C(C)(C)C)c1O (configuration not stated)	18.7 µM (inactive)	8.2 µM	7.73 µM (inactive)	32.2 µM (inactive)	13.5 µM (inactive)	16.4 µM (inactive)		9.55 µM (inactive)	5.36 µM (inactive)	15.7 µM (inactive)	12.5 µM (inactive)	11.3 µM (inactive)	10.1 µM (inactive)	14.5 µM (inactive)	5 µM (inactive)	
Cc1ccccc1NC(=O)c1ccc([N+](=O)[O-])cc1	> 100 µM (inactive)	66.2 µM	46.8 µM (inactive)	> 100 µM (inactive)	51.1 µM (inactive)	> 100 µM (inactive)	> 100 µM (inactive)	> 100 µM (inactive)	53.5 µM (inactive)	> 100 µM (inactive)	> 100 µM (inactive)	> 100 µM (inactive)	> 100 µM (inactive)	> 100 µM (inactive)	> 100 µM (inactive)	
COc1cc(Nc2nc3cc(C(F)(F)F)ccc3nc2C)cc(OC)c1OC	> 10 µM (inactive)	3.32 µM		16.7 µM (inactive)	3 µM (inactive)	13.6 µM (inactive)	5.14 µM (inactive)	10.7 µM (inactive)	16.1 µM (inactive)	1.97 µM (inactive)	12.2 µM (inactive)	12.5 µM (inactive)	15.5 µM (inactive)	9.95 µM (inactive)	3.94 µM (inactive)	11 µM (inactive)
CCCCCNC(=O)CCCCCCCCCCCNC(=O)CCCCCCCCCCN1C=CC(=CC=C2C=CC(=O)C=C2)C=C1	> 100 µM (inactive)	> 100 µM	2.51 µM (inactive)	64.6 µM (inactive)	54.6 µM (inactive)	28.4 µM (inactive)	63.8 µM (inactive)	28.2 µM (inactive)	41.3 µM (inactive)	71.4 µM (inactive)	30.3 µM (inactive)	> 100 µM (inactive)	19.4 µM (inactive)	32.1 µM (inactive)	48.4 µM (inactive)	
O=C1C(c2ccccc2)=C(O)c2cccc3cccc1c23	> 100 µM (inactive)	> 100 µM	> 100 µM (inactive)		> 100 µM (inactive)	> 100 µM (inactive)	88.9 µM (inactive)	> 100 µM (inactive)	47.4 µM (inactive)	> 100 µM (inactive)	> 100 µM (inactive)	> 100 µM (inactive)	40.3 µM (inactive)	> 100 µM (inactive)	> 100 µM (inactive)	> 100 µM (inactive)
O=C1C(=O)N(C(=O)c2ccc(Cl)c(Cl)c2)c2ccc(Cl)cc21	> 100 µM (inactive)		20.3 µM (inactive)		> 100 µM (inactive)	> 100 µM (inactive)	> 100 µM (inactive)	> 100 µM (inactive)	56.6 µM (inactive)	> 100 µM (inactive)	> 100 µM (inactive)	> 100 µM (inactive)	31.8 µM (inactive)	> 100 µM (inactive)	> 100 µM (inactive)	
CCN(CC)CC1CCCCN1CC(=O)N1CC(C)C(=O)Nc2ccccc21 (configuration not stated)	> 100 µM (inactive)	> 100 µM	> 100 µM (inactive)	> 100 µM (inactive)	> 100 µM (inactive)	> 100 µM (inactive)	> 100 µM (inactive)	> 100 µM (inactive)	> 100 µM (inactive)	> 100 µM (inactive)		> 100 µM (inactive)		> 100 µM (inactive)	> 100 µM (inactive)	
COC(=O)c1c(C)cc2c(c1O)C1(O)C(=O)c3cc4c(c(O)c3C(=O)C1(OC)C(O)C2)C(=O)C=C(NC1OC(C)C(OC)C(O)C1OC)C4=O (configuration not stated)	0.0619 µM (active)	0.106 µM	0.0194 µM (active)	0.277 µM (active)	0.0493 µM (active)	0.0134 µM (active)	0.189 µM (active)	0.0152 µM (active)	0.11 µM (active)	0.0331 µM (active)	0.0605 µM (active)		0.141 µM (active)	0.207 µM (active)	0.0139 µM (active)	0.0284 µM (active)
O=C(c1ccco1)N(C(=S)N1CCN(c2ccccc2)CC1)C1CCCCC1	67.1 µM (inactive)	94.6 µM	> 100 µM (inactive)	> 100 µM (inactive)	63.5 µM (inactive)	> 100 µM (inactive)		> 100 µM (inactive)	> 100 µM (inactive)	79.8 µM (inactive)	> 100 µM (inactive)	> 10 µM (inactive)	50.5 µM (inactive)	> 100 µM (inactive)	> 100 µM (inactive)	> 100 µM (inactive)
COc1cc(-c2ccccc2)c(OC)cc1CCl	> 100 µM (inactive)	> 100 µM	> 100 µM (inactive)	> 100 µM (inactive)	> 100 µM (inactive)	> 100 µM (inactive)	> 100 µM (inactive)	> 100 µM (inactive)	> 100 µM (inactive)	> 100 µM (inactive)	> 100 µM (inactive)		> 100 µM (inactive)	> 100 µM (inactive)	> 100 µM (inactive)	> 100 µM (inactive)
COc1ccc(/C=C/C(=O)c2cc(C(=O)O)c(OC)cc2OC)cc1OC	> 100 µM (inactive)	> 100 µM	> 100 µM (inactive)	> 100 µM (inactive)	> 100 µM (inactive)	> 100 µM (inactive)	> 100 µM (inactive)	> 100 µM (inactive)		> 100 µM (inactive)	> 100 µM (inactive)	> 100 µM (inactive)	> 100 µM (inactive)	> 100 µM (inactive)	> 100 µM (inactive)	
OC(CC1SCCCS1)c1ccccc1 (configuration not stated)	> 100 µM (inactive)	> 100 µM	> 100 µM (inactive)	> 100 µM (inactive)	> 100 µM (inactive)	> 100 µM (inactive)	> 100 µM (inactive)	> 100 µM (inactive)	> 100 µM (inactive)	> 100 µM (inactive)	> 100 µM (inactive)		> 100 µM (inactive)	> 100 µM (inactive)	> 100 µM (inactive)	> 100 µM (inactive)
[N-]=[N+]=NC1(Cc2ccccc2)C(=O)Nc2ccccc2C1=O (configuration not stated)	> 100 µM (inactive)	> 100 µM	> 100 µM (inactive)	> 100 µM (inactive)	> 100 µM (inactive)	88.7 µM (inactive)		> 100 µM (inactive)	91.6 µM (inactive)	> 100 µM (inactive)	> 100 µM (inactive)	> 100 µM (inactive)	> 100 µM (inactive)	> 100 µM (inactive)	> 100 µM (inactive)	> 100 µM (inactive)
O/N=C1/CCCC/C1=C/C=C/c1ccccc1	22.8 µM (inactive)	14.9 µM	13.1 µM (inactive)		18.3 µM (inactive)	16.5 µM (inactive)	23.6 µM (inactive)	22.8 µM (inactive)	17.9 µM (inactive)	21.8 µM (inactive)	20.2 µM (inactive)	3.42 µM (inactive)	20.4 µM (inactive)	16.7 µM (inactive)	18.6 µM (inactive)	17.7 µM (inactive)
O=[PH](O)c1cc2ccccc2c2ccccc12	> 100 µM (inactive)		> 100 µM (inactive)	> 100 µM (inactive)	> 100 µM (inactive)	> 100 µM (inactive)	> 100 µM (inactive)	> 100 µM (inactive)	> 100 µM (inactive)	> 100 µM (inactive)	> 100 µM (inactive)	> 100 µM (inactive)	> 100 µM (inactive)	> 100 µM (inactive)	> 100 µM (inactive)	
CC(=O)OC(CC1(C)C(C)CCC23COC(=O)C2=CCCC31)c1ccoc1 (configuration not stated)	31.6 µM (inactive)	20.4 µM		27.5 µM (inactive)	29.6 µM (inactive)		16.7 µM (inactive)	19 µM (inactive)	20.8 µM (inactive)	28.7 µM (inactive)	25.9 µM (inactive)	17.7 µM (inactive)	23.3 µM (inactive)	15.8 µM (inactive)	23.1 µM (inactive)	23.4 µM (inactive)
C=C1C2CC(OC(C)=O)C3(C)C(c4ccoc4)OC(=O)[C@@H](O)[C@]13OC1C[C@H](OC(C)=O)C(C)(C)[C@H](CC(=O)OC)[C@]12C (some centres not stated)	> 100 µM (inactive)	> 100 µM	50.6 µM (inactive)		> 100 µM (inactive)	> 100 µM (inactive)	> 100 µM (inactive)	> 100 µM (inactive)	> 100 µM (inactive)	> 100 µM (inactive)	> 100 µM (inactive)	> 100 µM (inactive)	33.6 µM (inactive)	> 100 µM (inactive)	> 100 µM (inactive)	> 100 µM (inactive)
C#C[C@]1(O)CC[C@H]2[C@@H]3CCc4cc(O)ccc4[C@H]3CC[C@@]21C [ETHINYL ESTRADIOL]	29.1 µM (inactive)	15.4 µM	21.7 µM (inactive)		13 µM (inactive)	55.5 µM (inactive)	20.3 µM (inactive)	23.7 µM (inactive)	28 µM (inactive)	19 µM (inactive)	17.6 µM (inactive)	65.2 µM (inactive)	12.6 µM (inactive)	7.8 µM (inactive)	34.3 µM (inactive)	24.5 µM (inactive)
